This note sets out measurements from patent US20040171073A1, “Compounds for modulation of cholesterol transport” (Massachusetts Institute of Technology, priority 2002, published 2004).

Structures are written as SMILES.

The target in the assay is T1, murine SR-BI (Mus musculus, UniProt Q61009).
T1 construct: expressed in transfected cells; host or cells: ldlA-7 (LDL receptor deficient Chinese hamster ovary cells)
T1 sequence (Q61009 1-509): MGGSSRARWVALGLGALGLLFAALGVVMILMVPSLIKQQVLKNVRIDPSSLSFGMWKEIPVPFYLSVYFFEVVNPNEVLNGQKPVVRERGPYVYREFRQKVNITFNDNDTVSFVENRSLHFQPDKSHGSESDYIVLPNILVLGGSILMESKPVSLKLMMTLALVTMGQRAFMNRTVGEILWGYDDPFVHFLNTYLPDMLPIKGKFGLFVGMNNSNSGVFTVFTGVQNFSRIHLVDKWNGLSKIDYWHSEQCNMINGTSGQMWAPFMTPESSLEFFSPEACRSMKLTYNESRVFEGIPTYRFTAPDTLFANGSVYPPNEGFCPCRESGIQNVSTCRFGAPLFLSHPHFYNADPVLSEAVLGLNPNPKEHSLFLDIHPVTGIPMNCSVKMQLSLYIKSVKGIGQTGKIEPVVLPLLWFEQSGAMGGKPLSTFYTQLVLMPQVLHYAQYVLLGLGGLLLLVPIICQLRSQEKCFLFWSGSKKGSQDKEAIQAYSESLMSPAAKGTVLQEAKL
The assay can be described thus: Uptake of DiI from DiI-HDL by ldlA[mSR-BI] cells (high throughput screen and concentration dependence). Format: cell-based.

The mark [1] stands for this setting: DiI uptake from DiI-HDL, compounds at nominal 10 micromolar, ldlA[mSR-BI] cells.

In the case of `Nc1ccc(C(=O)Nc2ccc(-c3nc4ccc(NC(=O)c5ccc(N)cc5)c(Cl)c4[nH]3)cc2Cl)cc1` [MIT 9952-208], the “ENDOHDL Test 1” value is 0.57 and the “ENDOHDL Test 2” value is 0.55.

As to `CC[n+]1c(/C=C/SC)ccc2ccccc21` [MIT 9952-260], the “ENDOHDL Test 1” value came to 0.56 and the “ENDOHDL Test 2” value is 0.58.

For the compound `O=[N+]([O-])c1ccc(-c2sc(/N=C/c3c(O)ccc4ccccc34)nc2-c2ccc(Cl)cc2)cc1` [MIT 9952-286], under setting [1], the “ENDOHDL Test 1” value is 0.62 and the “ENDOHDL Test 2” value is recorded as 0.64.

With `Cc1ccsc1/C=N/NC(=O)c1cccc([N+](=O)[O-])c1` [MIT 9952-228], the “ENDOHDL Test 1” value is reported as 0.46 and the “ENDOHDL Test 2” value came to 0.63.

In the case of `Nc1ccc(C(=O)Nc2ccc(C3Nc4ccc(SC(=O)c5ccc(N)cc5)c(Cl)c4S3)cc2)cc1` (centres unmarked) [MIT 9952-144], the “ENDOHDL Test 1” value was 0.56 and the “ENDOHDL Test 2” value came out at 0.56.

`O=C(NC(NC(=S)Nc1ccc2ccccc2c1)C(Cl)(Cl)Cl)c1cccc([N+](=O)[O-])c1` (centres unmarked) [MIT 9952-336]: under setting [1], the “ENDOHDL Test 1” value was determined as 0.54 and the “ENDOHDL Test 2” value turned out to be 0.58.

On to `Cc1nc(-c2ccc([N+](=O)[O-])cc2)c(C(=O)Nc2ccccc2)s1` [MIT 9952-160], for which the “ENDOHDL Test 1” value came out at 0.48 and the “ENDOHDL Test 2” value is recorded as 0.55.

On to `O=C(Cl)CCNC(=O)c1ccccc1` [MIT 9952-18], for which the “ENDOHDL Test 1” value is reported as 1.21 and the “ENDOHDL Test 2” value came to 1.22.

`O=C(N/N=C/c1cc2c(cc1Br)OCO2)c1cccc(Cl)c1` [MIT 9952-281]: under setting [1], the “ENDOHDL Test 1” value turned out to be 0.59 and the “ENDOHDL Test 2” value was 0.34.

Regarding `O=C(/C=C/C=C(Cl)Cl)c1ccc2c(c1)OCO2` [MIT 9952-298], under setting [1], the “ENDOHDL Test 1” value was 1.29 and the “ENDOHDL Test 2” value is listed as 1.24.

For the compound `CN(C)CC(=O)Nc1ccc2c(c1)Nc1ccccc1CC2.Cl` [MIT 9952-152], the “ENDOHDL Test 1” value is 0.51 and the “ENDOHDL Test 2” value came out at 0.43.

As to `O=[N+]([O-])c1cccc(-c2ccc(C(=S)N3CCCCC3)o2)c1` [MIT 9952-282], under setting [1], the “ENDOHDL Test 1” value stood at 0.49 and the “ENDOHDL Test 2” value turned out to be 0.5.

As for `CCOC(=O)c1c(NC(=O)c2ccc(N)c([N+](=O)[O-])c2)sc2c1CCCC2` [MIT 9952-121], the “ENDOHDL Test 1” value worked out at 0.54 and the “ENDOHDL Test 2” value worked out at 0.57.

On to `NC(=O)N/N=C/c1ccc(-c2ccc([N+](=O)[O-])cc2)o1` [MIT 9952-326], for which, under setting [1], the “ENDOHDL Test 1” value was determined as 0.55 and the “ENDOHDL Test 2” value stood at 0.53.

Consider `Nc1nc(-c2ccccc2)nc2sc3c(c12)CCCC3` [MIT 9952-15], for which the “ENDOHDL Test 1” value is recorded as 0.55 and the “ENDOHDL Test 2” value is 0.61.

Take `O=C(Nc1ccc(C2Nc3ccc(SC(=O)c4ccc(Cl)cc4)c(Cl)c3S2)cc1)c1ccc(Cl)cc1` (centres unmarked) [MIT 9952-35]: the “ENDOHDL Test 1” value is reported as 0.56 and the “ENDOHDL Test 2” value was determined as 0.56.

As for `Cc1ccc(N2SC(NS(=O)(=O)c3ccc(C)cc3)N=C2c2ccccc2)cc1` (centres unmarked) [MIT 9952-207], the “ENDOHDL Test 1” value was determined as 1.28 and the “ENDOHDL Test 2” value was 1.19.

Take `O=C(N/N=C/c1ccc(O)cc1)C1CC1(c1ccccc1)c1ccccc1` (centres unmarked) [MIT 9952-87]: the “ENDOHDL Test 1” value turned out to be 0.67 and the “ENDOHDL Test 2” value is recorded as 0.67.

With `CCOC(=O)C1=C(C)NC(=S)N(C=O)C1c1ccccc1` (centres unmarked) [MIT 9952-297], under setting [1], the “ENDOHDL Test 1” value was 0.56 and the “ENDOHDL Test 2” value was 0.46.

As to `O=S(=O)([O-])C(F)(F)F.O=[N+]([O-])c1ccc([I+]c2ccc(F)cc2)cc1` [MIT 9952-241], the “ENDOHDL Test 1” value is on record as 0.48 and the “ENDOHDL Test 2” value was 0.52.

Consider `O=C(Nc1ccc2c(c1)S(=O)(=O)c1cc(NC(=O)c3cccc4ccccc34)ccc1-2)c1cccc2ccccc12` [MIT 9952-229], for which the “ENDOHDL Test 1” value amounted to 0.58 and the “ENDOHDL Test 2” value was found to be 0.58.

`Nc1cc2cccnc2c2ncccc12` [MIT 9952-230]: the “ENDOHDL Test 1” value is 0.61 and the “ENDOHDL Test 2” value amounted to 0.51.

`CO/C(=N\C(NC(=S)Nc1ccc(Br)cc1)C(Cl)(Cl)Cl)c1ccc(C)cc1` (centres unmarked) [MIT 9952-198]: the “ENDOHDL Test 1” value was determined as 0.67 and the “ENDOHDL Test 2” value was found to be 0.64.

Turning to `O=C(N/N=C\c1cccn1-c1ccc([N+](=O)[O-])cc1)c1ccccc1` [MIT 9952-199], the “ENDOHDL Test 1” value was found to be 0.52 and the “ENDOHDL Test 2” value is on record as 0.46.

For the compound `CC(=O)c1c(C)n(-c2ccccc2)c2ccc(O)cc12` [MIT 9952-119], the “ENDOHDL Test 1” value was found to be 0.62 and the “ENDOHDL Test 2” value came out at 0.64.

For the compound `CCn1c(C)c(-c2ccccc2)c2cc([N+](=O)[O-])ccc21` [MIT 9952-257], the “ENDOHDL Test 1” value was determined as 0.66 and the “ENDOHDL Test 2” value was 0.61.

Consider `COc1cccc(C(=O)N/N=C/c2ccc(Cl)cc2Cl)c1` [MIT 9952-285], for which, under setting [1], the “ENDOHDL Test 1” value is on record as 0.57 and the “ENDOHDL Test 2” value was determined as 0.53.

In the case of `Cc1nn(-c2ccc([N+](=O)[O-])cc2)c(Cl)c1[N+](=O)[O-]` [MIT 9952-103], the “ENDOHDL Test 1” value worked out at 0.56 and the “ENDOHDL Test 2” value came to 0.61.

As to `CN(C)/C=N/C(=O)CN1CCCC1=O` [MIT 9952-148], the “ENDOHDL Test 1” value was 1.44 and the “ENDOHDL Test 2” value was determined as 1.32.

As to `O=C(Nc1cc(Sc2nc3ccccc3s2)cc([N+](=O)[O-])c1)c1ccc(F)c(F)c1` [MIT 9952-231], the “ENDOHDL Test 1” value amounted to 0.46 and the “ENDOHDL Test 2” value is 0.54.

For `O=C(Nc1cccc(Cl)c1)N1CCN(c2ccc([N+](=O)[O-])cc2)CC1` [MIT 9952-256], the “ENDOHDL Test 1” value is 0.65 and the “ENDOHDL Test 2” value is listed as 0.92.

Take `Cc1cc(C)c(/C=N/N=C/c2c(C)cc(C)cc2C)c(C)c1` [MIT 9952-287]: under setting [1], the “ENDOHDL Test 1” value came to 1.18 and the “ENDOHDL Test 2” value amounted to 1.32.

Regarding `O=C(Nc1ccc(Cl)c([N+](=O)[O-])c1)c1cccc(C(=O)Nc2ccc(Cl)c([N+](=O)[O-])c2)c1` [MIT 9952-219], the “ENDOHDL Test 1” value turned out to be 0.55 and the “ENDOHDL Test 2” value stood at 0.55.

Take `C/C(=N\NC(=O)c1ccccc1)c1ccccc1C(=O)O` [MIT 9952-242]: the “ENDOHDL Test 1” value was 1.26 and the “ENDOHDL Test 2” value was found to be 1.26.

`C/C(=C\C(=O)NCCc1c[nH]c2ccccc12)C(=O)O` [MIT 9952-76]: the “ENDOHDL Test 1” value came out at 1.25 and the “ENDOHDL Test 2” value came to 1.26.

Turning to `COc1cccc(/C=N/Nc2ccc([N+](=O)[O-])cc2)c1` [MIT 9952-240], the “ENDOHDL Test 1” value is 0.64 and the “ENDOHDL Test 2” value was determined as 0.71.

For `Clc1ccc(/N=C/c2ccc3c(c2)OCO3)nc1` [MIT 9952-176], the “ENDOHDL Test 1” value is on record as 1.36 and the “ENDOHDL Test 2” value is reported as 1.17.

Consider `O=C(Nc1ccc(Cl)c(Cl)c1)c1ccccc1Br` [MIT 9952-268], for which the “ENDOHDL Test 1” value stood at 0.59 and the “ENDOHDL Test 2” value is given as 0.65.

Consider `O=C(Cc1ccccc1)N/N=C/c1cccn1-c1ccc([N+](=O)[O-])cc1` [MIT 9952-123], for which the “ENDOHDL Test 1” value was 0.59 and the “ENDOHDL Test 2” value was found to be 0.64.

For the compound `COc1ccc2[nH]cc(CCN3CCOC3=O)c2c1` [MIT 9952-205], the “ENDOHDL Test 1” value came to 1.08 and the “ENDOHDL Test 2” value was 1.0.

With `O=C(CSC1=NCCN1)Nc1ccccc1` [MIT 9952-314], under setting [1], the “ENDOHDL Test 1” value worked out at 0.55 and the “ENDOHDL Test 2” value worked out at 0.54.

In the case of `NSCc1nc(-c2ccc(Cl)cc2)no1` [MIT 9952-64], the “ENDOHDL Test 1” value is 0.58 and the “ENDOHDL Test 2” value is recorded as 0.58.

For `COc1ccc(COCC(Cl)CN2CCCCC2)cc1OC.Cl` (centres unmarked) [MIT 9952-40], the “ENDOHDL Test 1” value is 1.28 and the “ENDOHDL Test 2” value is 1.23.

As to `Cn1cc(C=O)c2cc(Br)ccc21` [MIT 9952-193], the “ENDOHDL Test 1” value is 0.66 and the “ENDOHDL Test 2” value turned out to be 0.69.

As for `Br.Oc1c(Br)cccc1CN(Cc1cc(Br)cc(Br)c1O)C1CCCCC1` [MIT 9952-316], under setting [1], the “ENDOHDL Test 1” value turned out to be 0.71 and the “ENDOHDL Test 2” value is 0.72.

On to `Clc1ccc(-c2nc3ccc4ccccc4c3c3c2CCCC3)cc1` [MIT 9952-156], for which the “ENDOHDL Test 1” value is 0.57 and the “ENDOHDL Test 2” value stood at 0.62.

Turning to `NCC[Se][Se]CCN` [MIT 9952-318], under setting [1], the “ENDOHDL Test 1” value was 0.67 and the “ENDOHDL Test 2” value amounted to 0.81.

As to `CCn1c2ccccc2c2cc(/C=N/NC(N)=S)ccc21` [MIT 9952-211], the “ENDOHDL Test 1” value was found to be 0.59 and the “ENDOHDL Test 2” value was determined as 0.56.

In the case of `CCCCN1CCC(O)(c2ccccc2)C(C(=O)c2ccccc2)C1` (centres unmarked) [MIT 9952-142], the “ENDOHDL Test 1” value came to 1.28 and the “ENDOHDL Test 2” value is reported as 1.32.

With `O=C(/C=C/C=C(Cl)Cl)c1ccc2c(c1)OCO2` [MIT 9952-65], the “ENDOHDL Test 1” value is 1.29 and the “ENDOHDL Test 2” value turned out to be 1.24.

As for `C=CC[n+]1c(C)n(CC)c2cc(Cl)c(Cl)cc21.[I-]` [MIT 9952-169], the “ENDOHDL Test 1” value is 0.54 and the “ENDOHDL Test 2” value is 0.6.

Regarding `O=C(Nc1ccc(Oc2ccc(Cl)c3cccnc23)c(Cl)c1)c1ccc([N+](=O)[O-])cc1` [MIT 9952-324], under setting [1], the “ENDOHDL Test 1” value is reported as 0.55 and the “ENDOHDL Test 2” value turned out to be 0.56.
